Conditions: 1 mAh H-cell, 1 M sodium chloride, Selemion AMVN, about 20 days
Description: An H-cell can be used for the coulombic efficiency tests. […] The electrolyte can be dissolved in about 1 M sodium chloride for electrochemical stability testing. The moles of anolyte and catholyte molecules present can be controlled to achieve the desired capacity of 1 mAh. […] Selemion™ anion exchange membrane (AMVN) can be used for the H-cells.

For `C[N+](C)(C)CCC[N+](C)(C)CCCN1C(=O)c2ccc3c4ccc5c6c(ccc(c7ccc(c2c37)C1=O)c64)C(=O)N(CCC[N+](C)(C)CCC[N+](C)(C)C)C5=O` [PDI-tetraammonium-Cl4], the “crossover in H-cell” value was “almost no crossover”.

From US20240304840A1 (priority 2023, published 2024)
